Consider two compounds from patent publication US20230346764A1, “Methods and Compositions for Treating Pruritus, Xerosis, and Associated Disease Using CCR3-Inhibitors” (Alkahest, Inc., priority 2017, published 2023).

One data set in a line: Half-life of Compound 1. The note with it: read-out: t½ (converted).
The test system of another data set is SKH-1 Elite mice. The experiment in a line: Oxazolone model of chronic skin inflammation: blood lymphocyte and white blood cell counts. Type of data set: in vivo, mouse. The note with it: day 29; PO; Compound 1 30 mg/kg b.i.d., Dexamethasone 1.5 mg/kg q.d. As for the experimental part: FIGS. 9A and 9B report the effects on blood lymphocyte (FIG. 9A) and white blood cell (WBC) (FIG. 9B) levels in mice treated as in FIG. 8. Lymphocyte level reduction was severe with dexamethasone treated mice and less so with Compound 1 treatment.
The Oxazolone model of chronic skin inflammation, was tested using Compound 1 and a known anti-inflammatory, dexamethasone. SKH-1 Elite mice were sensitized with 10 µL of a high dose of topical Oxazolone (5% wt/vol in 100% EtOH) on their back and a subsequent chronic inflammation was triggered using low doses of topical Oxazolone (0.1% wt/vol in 100% EtOH) every other day on both flanks. […]
Three hundred (300) µL of whole blood in 10 mM EDTA freshly collected at day 29 of the study and erythrocytes was analyzed for counting of lymphocytes (FIG. 9A) and white blood cells (WBC) (FIG. 9B) using an Advia - 120 hematology analyzer. Lymphocyte and white blood cell (WBC) populations were quantified for each treatment group (n=3, 6, 8, 8, 8, 6, respectively). All data are mean ± s.e.m. and statistical significance was assessed using one-way ANOVA followed by Tukey’s multiple comparisons test with the following adjusted p-value thresholds: <0.05 (*), < 0.01 (**), < 0.001 (***) and <0.0001 (****).

Regarding `Cc1cc(C(=O)N(C)C)cc(NC(=O)[C@H]2CCC(=O)N2C2CCN(Cc3ccc(Cl)c(C)c3)CC2)n1` [Compound 1], the half-life in “Half-life of Compound 1” was 18 h. Regarding `C[C@@H]1C[C@H]2[C@@H]3CCC4=CC(=O)C=C[C@]4(C)[C@@]3(F)[C@@H](O)C[C@]2(C)[C@@]1(O)C(=O)CO` [Dexamethasone], the “blood lymphocyte level reduction” value with SKH-1 Elite mice was “severe”.
